{"source": "ChEMBL document CHEMBL1144734", "about": "“Inhibitory effect of xanthones isolated from the pericarp of Garcinia mangostana L. on rat basophilic leukemia RBL-2H3 cell degranulation” (Bioorg Med Chem, 2008)", "key": {"[1]": {"target": "Mitogen-activated protein kinase 1 (ERK2), Rattus norvegicus (UniProt P63086)", "sequence (P63086 whole entry, looked up)": "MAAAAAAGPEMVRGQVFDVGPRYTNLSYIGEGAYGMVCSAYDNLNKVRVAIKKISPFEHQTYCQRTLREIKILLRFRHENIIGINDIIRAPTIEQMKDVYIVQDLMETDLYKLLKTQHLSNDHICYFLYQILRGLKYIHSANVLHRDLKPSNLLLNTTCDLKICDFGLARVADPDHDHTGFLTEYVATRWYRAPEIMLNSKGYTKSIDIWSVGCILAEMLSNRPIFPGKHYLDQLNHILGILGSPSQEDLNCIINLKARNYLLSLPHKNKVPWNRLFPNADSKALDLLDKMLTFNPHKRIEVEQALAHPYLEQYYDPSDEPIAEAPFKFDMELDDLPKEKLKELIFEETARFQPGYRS", "assay": "Inhibition of ERK2 phosphorylation in IgE-sensitized rat RBL2H3 cells […] at 100 uM after 30 mins", "details": "RBL-2H3"}, "[2]": {"target": "Mitogen-activated protein kinase 3 (ERK1), Rattus norvegicus (UniProt P21708)", "sequence (P21708 whole entry, looked up)": "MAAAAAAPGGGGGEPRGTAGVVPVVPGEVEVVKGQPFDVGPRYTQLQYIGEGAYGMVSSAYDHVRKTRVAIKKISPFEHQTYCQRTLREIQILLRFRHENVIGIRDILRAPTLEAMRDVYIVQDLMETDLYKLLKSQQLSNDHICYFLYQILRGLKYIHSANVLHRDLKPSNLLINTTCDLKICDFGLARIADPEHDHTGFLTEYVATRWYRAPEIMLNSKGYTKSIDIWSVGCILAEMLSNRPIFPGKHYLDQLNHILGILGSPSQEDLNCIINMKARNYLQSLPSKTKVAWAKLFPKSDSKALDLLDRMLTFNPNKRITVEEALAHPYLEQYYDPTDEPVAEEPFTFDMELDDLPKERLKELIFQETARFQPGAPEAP", "assay": "Inhibition of ERK1 phosphorylation in IgE-sensitized rat RBL2H3 cells […] at 100 uM after 30 mins", "details": "RBL-2H3"}, "[3]": {"system": "RBL-2H3", "assay": "Inhibition of DNP-BSA stimulated histamine release in IgE-sensitized rat RBL2H3 cells after 30 mins", "type": "functional, cell-based"}, "[4]": {"system": "RBL-2H3", "assay": "Inhibition of A23187-induced degranulation in rat RBL2H3 cells", "type": "functional, cell-based"}, "[5]": {"system": "RBL-2H3", "assay": "Inhibition of DNP-BSA induced intracellular calcium elevation in IgE-sensitized rat RBL2H3 cells at 20 uM after 30 mins", "type": "functional, cell-based"}, "[6]": {"system": "RBL-2H3", "assay": "Decrease in FcepsilonRI-induced intracellular ROS level in IgE-sensitized rat RBL2H3 cells assessed as DCF oxidation at 20 uM after 30 mins", "type": "functional, cell-based"}, "[7]": {"target": "Tyrosine-protein kinase Lyn (Rattus norvegicus) (UniProt Q07014)", "sequence (Q07014 whole entry)": "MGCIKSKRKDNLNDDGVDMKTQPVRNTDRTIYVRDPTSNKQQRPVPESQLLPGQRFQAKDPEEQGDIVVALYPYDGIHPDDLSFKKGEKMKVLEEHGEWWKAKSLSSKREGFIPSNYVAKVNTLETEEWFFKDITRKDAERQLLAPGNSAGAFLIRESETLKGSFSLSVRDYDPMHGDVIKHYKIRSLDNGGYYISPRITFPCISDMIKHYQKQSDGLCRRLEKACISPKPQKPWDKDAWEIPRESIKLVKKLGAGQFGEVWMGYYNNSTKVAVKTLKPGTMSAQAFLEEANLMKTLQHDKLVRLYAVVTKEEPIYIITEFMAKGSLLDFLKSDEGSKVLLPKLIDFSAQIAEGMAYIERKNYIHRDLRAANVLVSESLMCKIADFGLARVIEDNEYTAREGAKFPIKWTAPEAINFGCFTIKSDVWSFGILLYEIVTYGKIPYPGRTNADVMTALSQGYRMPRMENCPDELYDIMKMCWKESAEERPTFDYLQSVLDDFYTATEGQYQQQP", "assay": "Inhibition of Lyn phosphorylation in IgE-sensitized rat RBL2H3 cells at 20 uM", "type": "cell-based", "details": "RBL-2H3"}, "[8]": {"target": "Tyrosine-protein kinase SYK (Rattus norvegicus) (UniProt Q64725)", "sequence (Q64725 whole entry, looked up)": "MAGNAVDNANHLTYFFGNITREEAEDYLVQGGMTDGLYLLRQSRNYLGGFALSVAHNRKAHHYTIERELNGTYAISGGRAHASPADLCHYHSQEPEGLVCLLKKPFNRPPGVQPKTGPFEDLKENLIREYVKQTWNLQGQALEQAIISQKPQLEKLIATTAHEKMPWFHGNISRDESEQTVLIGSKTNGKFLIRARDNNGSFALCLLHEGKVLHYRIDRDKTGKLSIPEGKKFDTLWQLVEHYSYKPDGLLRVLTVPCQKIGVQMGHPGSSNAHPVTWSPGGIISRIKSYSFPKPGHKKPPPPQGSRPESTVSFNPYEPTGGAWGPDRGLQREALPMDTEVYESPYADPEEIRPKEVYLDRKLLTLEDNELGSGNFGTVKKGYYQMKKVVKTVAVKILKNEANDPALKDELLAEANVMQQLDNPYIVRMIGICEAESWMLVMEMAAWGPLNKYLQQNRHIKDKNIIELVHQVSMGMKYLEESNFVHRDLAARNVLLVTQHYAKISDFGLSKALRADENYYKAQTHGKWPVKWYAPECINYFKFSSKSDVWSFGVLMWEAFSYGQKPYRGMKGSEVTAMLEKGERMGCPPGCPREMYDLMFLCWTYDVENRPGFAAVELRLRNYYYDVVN", "assay": "Inhibition of Syk phosphorylation in IgE-sensitized rat RBL2H3 cells at 20 uM", "type": "cell-based", "details": "RBL-2H3"}, "[9]": {"system": "RBL-2H3", "assay": "Inhibition of p38 phosphorylation in IgE-sensitized rat RBL2H3 cells at 20 uM", "type": "cell-based"}, "[10]": {"target": "Mitogen-activated protein kinase 1 (ERK2), Rattus norvegicus (UniProt P63086)", "assay": "Inhibition of ERK2 phosphorylation in IgE-sensitized rat RBL2H3 cells at 20 uM", "details": "RBL-2H3"}, "[11]": {"target": "Mitogen-activated protein kinase 9 (JNK2), Rattus norvegicus (UniProt P49186)", "sequence (P49186 whole entry, looked up)": "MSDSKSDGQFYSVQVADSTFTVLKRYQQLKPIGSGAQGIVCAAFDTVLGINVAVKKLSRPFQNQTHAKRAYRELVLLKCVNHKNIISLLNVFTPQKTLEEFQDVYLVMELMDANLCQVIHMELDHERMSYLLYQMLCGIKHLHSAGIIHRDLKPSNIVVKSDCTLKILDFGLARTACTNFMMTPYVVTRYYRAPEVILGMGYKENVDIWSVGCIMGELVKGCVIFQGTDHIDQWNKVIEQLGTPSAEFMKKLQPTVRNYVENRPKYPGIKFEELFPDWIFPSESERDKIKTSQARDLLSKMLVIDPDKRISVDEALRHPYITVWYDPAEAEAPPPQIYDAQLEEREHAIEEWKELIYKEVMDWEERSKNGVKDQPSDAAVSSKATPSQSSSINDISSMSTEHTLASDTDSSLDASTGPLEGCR", "assay": "Inhibition of JNK2 phosphorylation in IgE-sensitized rat RBL2H3 cells at 20 uM", "details": "RBL-2H3"}, "[12]": {"target": "Mitogen-activated protein kinase 3 (ERK1), Rattus norvegicus (UniProt P21708)", "assay": "Inhibition of ERK1 phosphorylation in IgE-sensitized rat RBL2H3 cells at 20 uM", "details": "RBL-2H3"}, "[13]": {"target": "Mitogen-activated protein kinase 8 (JNK1), Rattus norvegicus (UniProt P49185)", "sequence (P49185 whole entry, looked up)": "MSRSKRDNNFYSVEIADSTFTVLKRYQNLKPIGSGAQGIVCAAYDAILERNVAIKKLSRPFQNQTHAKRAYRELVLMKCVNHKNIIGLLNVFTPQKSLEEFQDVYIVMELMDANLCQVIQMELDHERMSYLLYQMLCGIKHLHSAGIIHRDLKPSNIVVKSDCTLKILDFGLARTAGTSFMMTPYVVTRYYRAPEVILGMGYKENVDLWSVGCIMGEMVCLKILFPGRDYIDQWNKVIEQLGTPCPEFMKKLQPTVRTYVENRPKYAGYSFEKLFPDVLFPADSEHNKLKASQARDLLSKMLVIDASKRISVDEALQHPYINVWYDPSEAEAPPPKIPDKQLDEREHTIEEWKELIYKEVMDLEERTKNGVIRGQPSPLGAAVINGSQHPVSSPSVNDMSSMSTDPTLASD", "assay": "Inhibition of JNK1 phosphorylation in IgE-sensitized rat RBL2H3 cells at 20 uM", "details": "RBL-2H3"}, "[14]": {"system": "Phospholipase C-gamma-1, Rattus norvegicus", "assay": "Inhibition of PLC-gamma1 phosphorylation in IgE-sensitized rat RBL2H3 cells at 20 uM", "details": "RBL-2H3"}, "[15]": {"system": "Phospholipase C-gamma-2, Rattus norvegicus", "assay": "Inhibition of PLC-gamma2 phosphorylation in IgE-sensitized rat RBL2H3 cells at 20 uM", "details": "RBL-2H3"}, "[16]": {"target": "Mitogen-activated protein kinase 3 (ERK1), Rattus norvegicus (UniProt P21708)", "assay": "Inhibition of ERK1 phosphorylation in IgE-sensitized rat RBL2H3 cells […] at 2 uM after 30 mins", "details": "RBL-2H3"}, "[17]": {"system": "Radical scavenging activity", "assay": "Antioxidant activity assessed as DPPH radical scavenging activity", "type": "functional"}, "[18]": {"target": "Mitogen-activated protein kinase 1 (ERK2), Rattus norvegicus (UniProt P63086)", "assay": "Inhibition of ERK2 phosphorylation in IgE-sensitized rat RBL2H3 cells […] at 2 uM after 30 mins", "details": "RBL-2H3"}, "[19]": {"target": "Tyrosine-protein kinase SYK (Rattus norvegicus) (UniProt Q64725)", "assay": "Inhibition of ERK1 phosphorylation in IgE-sensitized rat RBL2H3 cells […] at 50 uM after 30 mins", "type": "cell-based", "details": "RBL-2H3"}, "[20]": {"target": "Tyrosine-protein kinase SYK (Rattus norvegicus) (UniProt Q64725)", "assay": "Inhibition of ERK2 phosphorylation in IgE-sensitized rat RBL2H3 cells […] at 50 uM after 30 mins", "type": "cell-based", "details": "RBL-2H3"}}, "note": "Activity calls are given as the source filed them. The rule behind the calls is not given here."}
{"smiles": "CN(C)C[C@H]1CCn2c(c(C3=C(c4cn(C)c5ccccc45)C(=O)NC3=O)c3ccccc32)C1", "values": [{"measurement": "Activity", "setting": "[1]", "result": "inactive"}, {"measurement": "Activity", "setting": "[2]", "result": "inactive"}]}
{"smiles": "COc1c(O)cc2oc3cc(O)c(CC=C(C)C)c(O)c3c(=O)c2c1CC=C(C)C", "values": [{"measurement": "Activity", "setting": "[3]", "result": "Dose-dependent effect"}, {"measurement": "Activity", "setting": "[4]", "result": "inactive"}, {"measurement": "Activity", "setting": "[5]", "result": "Active"}, {"measurement": "Activity", "setting": "[6]", "result": "inactive"}, {"measurement": "Activity", "setting": "[7]", "result": "inactive"}, {"measurement": "Activity", "setting": "[8]", "result": "Active"}, {"measurement": "Activity", "setting": "[9]", "result": "inactive"}, {"measurement": "Activity", "setting": "[10]", "result": "Active"}, {"measurement": "Activity", "setting": "[11]", "result": "inactive"}, {"measurement": "Activity", "setting": "[12]", "result": "Active"}, {"measurement": "Activity", "setting": "[13]", "result": "inactive"}]}
{"smiles": "COc1cc2oc3cc(O)c(OC)c(CC=C(C)C)c3c(=O)c2c(O)c1CC=C(C)C", "values": [{"measurement": "Activity", "setting": "[3]", "result": "Dose-dependent effect"}, {"measurement": "Activity", "setting": "[4]", "result": "inactive"}, {"measurement": "Activity", "setting": "[5]", "result": "Active"}, {"measurement": "Activity", "setting": "[6]", "result": "inactive"}, {"measurement": "Activity", "setting": "[7]", "result": "inactive"}, {"measurement": "Activity", "setting": "[8]", "result": "Active"}, {"measurement": "Activity", "setting": "[9]", "result": "inactive"}, {"measurement": "Activity", "setting": "[10]", "result": "Active"}, {"measurement": "Activity", "setting": "[11]", "result": "inactive"}, {"measurement": "Activity", "setting": "[12]", "result": "Active"}, {"measurement": "Activity", "setting": "[13]", "result": "inactive"}, {"measurement": "Activity", "setting": "[14]", "result": "Active"}, {"measurement": "Activity", "setting": "[15]", "result": "Active"}]}
{"smiles": "COc1ccc2c(c1)c(C1=C(c3c[nH]c4ccccc34)C(=O)NC1=O)cn2CCCN(C)C", "values": [{"measurement": "Activity", "setting": "[16]", "result": "inactive"}, {"measurement": "Activity", "setting": "[1]", "result": "inactive"}]}
{"smiles": "CC(C)=CCc1c(O)cc2oc3cc(O)c(O)c(CC=C(C)C)c3c(=O)c2c1O", "values": [{"measurement": "Activity", "setting": "[3]", "result": "Dose-dependent effect"}, {"measurement": "Activity", "setting": "[4]", "result": "inactive"}, {"measurement": "Activity", "setting": "[5]", "result": "Active"}, {"measurement": "Activity", "setting": "[6]", "result": "Active"}, {"measurement": "Activity", "setting": "[17]", "result": "Active"}, {"measurement": "Activity", "setting": "[7]", "result": "inactive"}, {"measurement": "Activity", "setting": "[8]", "result": "Active"}, {"measurement": "Activity", "setting": "[9]", "result": "inactive"}, {"measurement": "Activity", "setting": "[10]", "result": "Active"}, {"measurement": "Activity", "setting": "[11]", "result": "inactive"}, {"measurement": "Activity", "setting": "[12]", "result": "Active"}, {"measurement": "Activity", "setting": "[13]", "result": "inactive"}]}
{"smiles": "CC(=O)c1c(O)c(C)c(O)c(Cc2c(O)c3c(c(C(=O)/C=C/c4ccccc4)c2O)OC(C)(C)C=C3)c1O", "values": [{"measurement": "Activity", "setting": "[18]", "result": "inactive"}, {"measurement": "Activity", "setting": "[2]", "result": "inactive"}]}
{"smiles": "O=c1cc(N2CCOCC2)oc2c(-c3ccccc3)cccc12", "values": [{"measurement": "Activity", "setting": "[4]", "result": "Active"}, {"measurement": "Activity", "setting": "[18]", "result": "inactive"}]}
{"smiles": "COc1c(C[C@@H](C)OC(=O)Oc2ccc(O)cc2)c2c3c(C[C@@H](C)OC(=O)c4ccccc4)c(OC)c(=O)c4c(O)cc(OC)c(c5c(OC)cc(O)c(c1=O)c52)c43", "values": [{"measurement": "Activity", "setting": "[19]", "result": "inactive"}, {"measurement": "Activity", "setting": "[20]", "result": "inactive"}]}
